Test results taken from US20100168102A9, “Amide Derivatives as Kinase Inhibitors” (Devgen NV, priority 2005, published 2010).

How the values were obtained:
[1] = target: T1, PKC epsilon (Homo sapiens, UniProt Q02156); assay: Biochemical assay for PKC epsilon (fluorescence polarization, Protein Kinase C Assay Kit, Red); conditions: read-out: IC50 μM PKCε
T1 construct: purchased Invitrogen P2282
T1 sequence (Q02156 1-737): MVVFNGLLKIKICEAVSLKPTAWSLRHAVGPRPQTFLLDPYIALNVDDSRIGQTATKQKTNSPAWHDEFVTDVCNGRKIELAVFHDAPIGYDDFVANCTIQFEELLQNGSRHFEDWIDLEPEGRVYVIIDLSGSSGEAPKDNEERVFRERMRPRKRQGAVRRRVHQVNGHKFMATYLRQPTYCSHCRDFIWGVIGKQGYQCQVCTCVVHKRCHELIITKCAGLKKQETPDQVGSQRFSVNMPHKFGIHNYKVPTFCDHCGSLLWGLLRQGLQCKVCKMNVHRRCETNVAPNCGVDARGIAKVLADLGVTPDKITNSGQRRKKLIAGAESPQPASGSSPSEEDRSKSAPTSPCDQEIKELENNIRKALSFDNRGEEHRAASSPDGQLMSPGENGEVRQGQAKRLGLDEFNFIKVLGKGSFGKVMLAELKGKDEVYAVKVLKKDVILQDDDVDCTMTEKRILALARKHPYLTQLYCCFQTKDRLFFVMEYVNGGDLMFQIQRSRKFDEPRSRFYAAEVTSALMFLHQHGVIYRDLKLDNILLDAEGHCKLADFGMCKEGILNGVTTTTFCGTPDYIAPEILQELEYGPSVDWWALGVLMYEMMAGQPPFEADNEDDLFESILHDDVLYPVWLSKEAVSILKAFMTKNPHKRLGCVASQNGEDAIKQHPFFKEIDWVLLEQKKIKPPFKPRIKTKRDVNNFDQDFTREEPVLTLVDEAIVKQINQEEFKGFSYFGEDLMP
Procedure, shortened: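 PKC epsilon at 10 ng/ml final was preincubated 30 min at room temperature with compound in HEPES pH 7.4 with DTT and Triton X-100. ATP/protein substrate was then added in buffer with MgCl2 and CaCl2 for 80 min. The reaction was stopped with EDTA, phosphorylation was detected by fluorescence polarization with rhodamine tracer and anti-phosphoserine antibody, and IC50 values came from curve fits.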

[2] = target: T2, human ROCKα/ROCKII mix (Homo sapiens, UniProt O75116); assay: Biochemical assay for ROCK (fluorescence polarization, ROCK IMAP Kit)
T2 construct: purchased Upstate Biotechnology 14-451
T2 sequence (O75116 11-552 limits assumed): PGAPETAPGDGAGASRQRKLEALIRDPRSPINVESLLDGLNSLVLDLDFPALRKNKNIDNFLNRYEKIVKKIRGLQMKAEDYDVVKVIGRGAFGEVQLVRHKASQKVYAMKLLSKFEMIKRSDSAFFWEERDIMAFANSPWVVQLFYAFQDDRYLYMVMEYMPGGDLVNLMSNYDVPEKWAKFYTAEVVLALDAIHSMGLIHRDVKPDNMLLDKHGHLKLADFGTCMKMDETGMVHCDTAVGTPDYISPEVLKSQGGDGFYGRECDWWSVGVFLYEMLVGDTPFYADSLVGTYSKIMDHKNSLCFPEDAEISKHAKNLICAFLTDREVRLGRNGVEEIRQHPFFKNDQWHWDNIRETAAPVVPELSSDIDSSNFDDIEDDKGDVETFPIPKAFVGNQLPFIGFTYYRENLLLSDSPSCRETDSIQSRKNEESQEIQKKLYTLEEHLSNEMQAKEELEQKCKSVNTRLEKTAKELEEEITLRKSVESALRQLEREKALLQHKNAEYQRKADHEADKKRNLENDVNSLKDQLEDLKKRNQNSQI

Row | IC50 [1] | IC50 [2] | Compound
1 | 5 to 50 µM | 0.5 to 5 µM | CN(CC(N)c1ccc(C(=O)Nc2ccncc2)cc1)C(=O)Cc1ccc(Cl)c(Cl)c1 (centres unmarked) [Compound 491, 4-(1-Amino-2-{[2-(3,4-dichloro-phenyl)-acetyl]-methyl-amino}-ethyl)-N-pyridin-4-yl-benzamide]
2 | 5 to 50 µM | 0.5 to 5 µM | CN(CC(N)c1ccc(C(=O)Nc2ccncc2)cc1)C(=O)C1(c2ccc(Cl)c(Cl)c2)CC1 (centres unmarked) [Compound 493, 4-(1-Amino-2-{[1-(3,4-dichloro-phenyl)-cyclopropanecarbonyl]-methyl-amino}-ethyl)-N-pyridin-4-yl-benzamide]
3 | 5 to 50 µM | 0.5 to 5 µM | CN(CC(N)c1ccc(C(=O)Nc2ccncc2)cc1)C(=O)C1(c2ccc(Cl)c(Cl)c2)CCC1 (centres unmarked) [Compound 494, 4-(1-Amino-2-{[1-(3,4-dichloro-phenyl)-cyclobutanecarbonyl]-methyl-amino}-ethyl)-N-pyridin-4-yl-benzamide]
4 | 5 to 50 µM | 0.5 to 5 µM | CN(CC(N)c1ccc(C(=O)Nc2ccncc2)cc1)C(=O)C1(c2ccc(Cl)cc2Cl)CC1 (centres unmarked) [Compound 495, 4-(1-Amino-2-{[1-(2,4-dichloro-phenyl)-cyclopropanecarbonyl]-methyl-amino}-ethyl)-N-pyridin-4-yl-benzamide]
5 | 5 to 50 µM | 0.5 to 5 µM | CN(CC(N)c1ccc(C(=O)Nc2ccncc2)cc1)C(=O)Cc1c(F)cccc1Cl (centres unmarked) [Compound 496, 4-(1-Amino-2-{[2-(2-chloro-6-fluoro-phenyl)-acetyl]-methyl-amino}-ethyl)-N-pyridin-4-yl-benzamide]
6 | 5 to 50 µM | 0.5 to 5 µM | CN(CC(N)c1ccc(C(=O)Nc2ccncc2)cc1)C(=O)Cc1ccc(F)cc1Cl (centres unmarked) [Compound 498, 4-(1-Amino-2-{[2-(2-chloro-4-fluoro-phenyl)-acetyl]-methyl-amino}-ethyl)-N-pyridin-4-yl-benzamide]
7 | 5 to 50 µM | 0.5 to 5 µM | CN(CC(N)c1ccc(C(=O)Nc2ccncc2)cc1)C(=O)Cc1cccc(Cl)c1F (centres unmarked) [Compound 501, 4-(1-Amino-2-{[2-(3-chloro-2-fluoro-phenyl)-acetyl]-methyl-amino}-ethyl)-N-pyridin-4-yl-benzamide]
8 | 5 to 50 µM | 0.5 to 5 µM | CN(CC(N)c1ccc(C(=O)Nc2ccncc2)cc1)C(=O)Cc1ccc(Cl)cc1F (centres unmarked) [Compound 502, 4-(1-Amino-2-{[2-(4-chloro-2-fluoro-phenyl)-acetyl]-methyl-amino}-ethyl)-N-pyridin-4-yl-benzamide]
9 | 0.5 to 5 µM | 0.5 to 5 µM | CN(CC(N)c1ccc(C(=O)Nc2ccncc2)cc1)C(=O)C1(c2ccc(Cl)cc2F)CC1 (centres unmarked) [Compound 504, 4-(1-Amino-2-{[1-(4-chloro-2-fluoro-phenyl)-cyclopropanecarbonyl]-methyl-amino}-ethyl)-N-pyridin-4-yl-benzamide]
10 | 5 to 50 µM | 0.5 to 5 µM | CN(CC(N)c1ccc(C(=O)Nc2ccncc2)cc1)C(=O)C(C)(C)c1ccc(F)c(Cl)c1 (centres unmarked) [Compound 505, 4-(1-Amino-2-{[2-(3-chloro-4-fluoro-phenyl)-2-methyl-propionyl]-methyl-amino}-ethyl)-N-pyridin-4-yl-benzamide]
11 | 5 to 50 µM | 0.5 to 5 µM | CN(CC(N)c1ccc(C(=O)Nc2ccncc2)cc1)C(=O)C1(c2ccc(F)c(Cl)c2)CC1 (centres unmarked) [Compound 506, 4-(1-Amino-2-{[1-(3-chloro-4-fluoro-phenyl)-cyclopropanecarbonyl]-methyl-amino}-ethyl)-N-pyridin-4-yl-benzamide]
12 | 5 to 50 µM | 0.5 to 5 µM | CN(CC(N)c1ccc(C(=O)Nc2ccncc2)cc1)C(=O)C1CCCc2ccccc21 (centres unmarked) [Compound 512, 1,2,3,4-Tetrahydro-naphthalene-1-carboxylic acid {2-amino-2-[4-(pyridin-4-ylcarbamoyl)-phenyl]-ethyl}-methyl-amide]
13 | 5 to 50 µM | 0.5 to 5 µM | CN(CC(N)c1ccc(C(=O)Nc2ccncc2)cc1)C(=O)C1CCOc2ccc(Cl)cc21 (centres unmarked) [Compound 515, 6-Chloro-chroman-4-carboxylic acid {2-amino-2-[4-(pyridin-4-ylcarbamoyl)-phenyl]-ethyl}-methyl-amide]
14 | 5 to 50 µM | 0.5 to 5 µM | CN(CC(N)c1ccc(C(=O)Nc2ccncc2)cc1)C(=O)C1CCOc2ccc(F)cc21 (centres unmarked) [Compound 516, 6-Fluoro-chroman-4-carboxylic acid {2-amino-2-[4-(pyridin-4-ylcarbamoyl)-phenyl]-ethyl}-methyl-amide]
15 | 5 to 50 µM | 5 to 50 µM | CN(CC(N)c1ccc(C(=O)Nc2ccncc2)cc1)C(=O)C1CCSc2ccccc21 (centres unmarked) [Compound 517, Thiochroman-4-carboxylic acid {2-amino-2-{4-(pyridin-4-ylcarbamoyl)-phenyl]-ethyl}-methyl-amide]
16 | 5 to 50 µM | 5 to 50 µM | CN(CC(N)c1ccc(C(=O)Nc2ccncc2)cc1)C(=O)C1CCSc2ccc(F)cc21 (centres unmarked) [Compound 518, 6-Fluoro-thiochroman-4-carboxylic acid {2-amino-2-[4-(pyridin-4-ylcarbamoyl)-phenyl]-ethyl}-methyl-amide]
17 | 5 to 50 µM | 0.5 to 5 µM | CN(CC(N)c1ccc(C(=O)Nc2ccncc2)cc1)C(=O)C1CCCc2sccc21 (centres unmarked) [Compound 520, 4,5,6,7-Tetrahydro-benzo[b]thiophene-4-carboxylic acid {2-amino-2-[4-(pyridin-4-ylcarbamoyl)-phenyl]-ethyl}-methyl-amide]
18 | 0.5 to 5 µM | 0.05 to 0.5 µM | NC(c1ccc(C(=O)Nc2ccncc2)cc1)C1CCCN1C(=O)Cc1ccccc1 (centres unmarked) [Compound 521, 4-[Amino-(1-phenylacetyl-pyrrolidin-2-yl)-methyl]-N-pyridin-4-yl-benzamide]
19 | 5 to 50 µM | 0.5 to 5 µM | Cc1cccc(CC(=O)N2CCCC2C(N)c2ccc(C(=O)Nc3ccncc3)cc2)c1 (centres unmarked) [Compound 524, 4-{Amino-[1-(2-m-tolyl-acetyl)-pyrrolidin-2-yl]-methyl}-N-pyridin-4-yl-benzamide]
20 | 0.5 to 5 µM | 0.5 to 5 µM | Cc1ccc(CC(=O)N2CCCC2C(N)c2ccc(C(=O)Nc3ccncc3)cc2)cc1 (centres unmarked) [Compound 525, 4-{Amino-[1-(2-p-tolyl-acetyl)-pyrrolidin-2-yl]-methyl}-N-pyridin-4-yl-benzamide]
21 | 5 to 50 µM | 0.5 to 5 µM | COc1ccccc1CC(=O)N1CCCC1C(N)c1ccc(C(=O)Nc2ccncc2)cc1 (centres unmarked) [Compound 526, 4-(Amino-{1-[2-(2-methoxy-phenyl)-acetyl]-pyrrolidin-2-yl]-methyl}-N-pyridin-4-yl-benzamide]
22 | 0.5 to 5 µM | 0.5 to 5 µM | COc1cccc(CC(=O)N2CCCC2C(N)c2ccc(C(=O)Nc3ccncc3)cc2)c1 (centres unmarked) [Compound 527, 4-(Amino-{1-[2-(3-methoxy-phenyl)-acetyl]-pyrrolidin-2-yl}-methyl)-N-pyridin-4-yl-benzamide]
23 | 0.5 to 5 µM | 0.05 to 0.5 µM | COc1ccc(CC(=O)N2CCCC2C(N)c2ccc(C(=O)Nc3ccncc3)cc2)cc1 (centres unmarked) [Compound 528, 4-(Amino-{1-[2-(4-methoxy-phenyl)-acetyl]-pyrrolidin-2-yl}-methyl)-N-pyridin-4-yl-benzamide]
24 | 0.5 to 5 µM | 0.5 to 5 µM | COc1ccc(C2(C(=O)N3CCCC3C(N)c3ccc(C(=O)Nc4ccncc4)cc3)CC2)cc1 (centres unmarked) [Compound 529, 4-(Amino-{1-[1-(4-methoxy-phenyl)-cyclopropanecarbonyl]-pyrrolidin-2-yl}-methyl)-N-pyridin-4-yl-benzamide]
25 | 0.5 to 5 µM | 0.5 to 5 µM | COc1ccc(C2(C(=O)N3CCCC3C(N)c3ccc(C(=O)Nc4ccncc4)cc3)CCCC2)cc1 (centres unmarked) [Compound 530, 4-(Amino-{1-[1-(4-methoxy-phenyl)-cyclopentanecarbonyl]-pyrrolidin-2-yl}-methyl)-N-pyridin-4-yl-benzamide]
26 | 0.5 to 5 µM | 0.5 to 5 µM | COc1ccc(CC(=O)N2CCCC2C(N)c2ccc(C(=O)Nc3ccncc3)cc2)c(OC)c1 (centres unmarked) [Compound 531, 4-(Amino-{1-[2-(2,4-dimethoxy-phenyl)-acetyl]-pyrrolidin-2-yl}-methyl)-N-pyridin-4-yl-benzamide]
27 | 5 to 50 µM | 0.5 to 5 µM | COc1cc(CC(=O)N2CCCC2C(N)c2ccc(C(=O)Nc3ccncc3)cc2)cc(OC)c1OC (centres unmarked) [Compound 532, 4-(Amino-{1-[2-(3,4,5-trimethoxy-phenyl)-acetyl]-pyrrolidin-2-yl}-methyl)-N-pyridin-4-yl-benzamide]
28 | 0.5 to 5 µM | 0.5 to 5 µM | NC(c1ccc(C(=O)Nc2ccncc2)cc1)C1CCCN1C(=O)Cc1ccc2ccccc2c1 (centres unmarked) [Compound 535, 4-{Amino-[1-(2-naphthalen-2-yl-acetyl)-pyrrolidin-2-yl]-methyl}-N-pyridin-4-yl-benzamide]
